Test [1] relates to UMUC3. Kind of test: Antiproliferative activity against human UM-UC-3 cells incubated for 72 hrs by SRB assay. The note with it: UMUC3, 72 h. It is filed as functional, cell-based.
The test system of test [2] is MV4-11. In words: Antiproliferative activity against human MV4-11 cells incubated for 72 hrs by SRB assay. The following applies: MV4-11, 72 h. In kind it is functional, cell-based.
Test [3] relates to UMUC3. Kind of test: Induction of apoptosis in human UM-UC-3 cells assessed as increase in caspase-3/7 activity at 100 uM using Ac-DEVD-ACC substrate incubated for 24 hrs by fluorescence based assay. In kind it is functional, cell-based.
The next test concerns MCF7. Kind of test: Antiproliferative activity against human MCF7 cells incubated for 72 hrs by SRB assay. In kind it is functional, cell-based. The following applies: MCF7, 72 h. (Sulforhodamine B stains cellular protein and so reports cell mass.)
A further test deals with A2780. In words: Antiproliferative activity against human A2780 cells incubated for 72 hrs by SRB assay. In kind it is functional, cell-based. The note with it: A2780, 72 h.
The subject of test [4] is UMUC3. Kind of test: Induction of oxidative stress in human UM-UC-3 cells assessed as increase in ROS production at 5 to 100 uM incubated for 6 hrs by DCF-DA and propidium iodide dye based flow cytometry. It is filed as functional, cell-based. (Flow cytometry measures light scatter and fluorescence of single cells or particles in a stream.)
Test [5] has as its system MV4-11. In words: Induction of cell cycle arrest in human MV4-11 cells assessed as increase in accumulation at subG1 phase at 100 uM incubated for 24 hrs by propidium iodide staining based flow cytometry. It is filed as functional.
For test [6], the system named is MV4-11. Kind of test: Induction of cell cycle arrest in human MV4-11 cells assessed as increase in accumulation at G0/G1 phase at 100 uM incubated for 24 hrs by propidium iodide staining based flow cytometry. In kind it is functional.
In test [7] the test system is UMUC3. In words: Induction of cell cycle arrest in human UM-UC-3 cells assessed as accumulation at G0/G1 phase at 5 to 100 uM incubated for 24 hrs by propidium iodide staining based flow cytometry. It is filed as functional.
The test system of a further test is MDA-MB-231. Kind of test: Antiproliferative activity against human MDA-MB-231 cells incubated for 72 hrs by SRB assay. It is filed as functional, cell-based. The note with it: MDA-MB-231, 72 h.
For test [8], the system named is UMUC3. In words: Induction of cell cycle arrest in human UM-UC-3 cells assessed as accumulation at G2/M phase at 5 to 100 uM incubated for 24 hrs by propidium iodide staining based flow cytometry. It is filed as functional.
The subject of test [9] is UMUC3. Kind of test: Induction of cell cycle arrest in human UM-UC-3 cells assessed as accumulation at S phase at 5 to 100 uM incubated for 24 hrs by propidium iodide staining based flow cytometry. It is filed as functional.
The test system of test [10] is MV4-11. In words: Induction of apoptosis in human MV4-11 cells assessed as increase in caspase-3/7 activity using Ac-DEVD-ACC substrate incubated for 24 hrs by fluorescence based assay. It is filed as functional, cell-based.
Test [11] concerns MV4-11. Kind of test: Induction of cell cycle arrest in human MV4-11 cells assessed as reduction in accumulation at G2/M phase at 100 uM incubated for 24 hrs by propidium iodide staining based flow cytometry. In kind it is functional.
The test system of another test is HT-29. In words: Antiproliferative activity against human HT-29 cells incubated for 72 hrs by SRB assay. In kind it is functional, cell-based. The note with it: HT-29, 72 h.
A further test concerns BALB/3T3. In words: Antiproliferative activity against mouse BALB/3T3 cells incubated for 72 hrs by SRB assay. It is filed as cell-based. The note with it: BALB/3T3, 72 h.
The subject of a further test is LoVo. Kind of test: Antiproliferative activity against human LoVo cells incubated for 72 hrs by SRB assay. It is filed as functional, cell-based.
The subject of test [12] is MV4-11. In words: Induction of cell cycle arrest in human MV4-11 cells assessed as reduction in accumulation at S phase at 100 uM incubated for 24 hrs by propidium iodide staining based flow cytometry. It is filed as functional.
Test [13] can be described thus: Ratio of induction of apoptosis in human UM-UC-3 cells assessed as increase in caspase-3/7 activity at 100 uM to induction of apoptosis in human MV4-11 cells assessed as increase in caspase-3/7 activity at 100 uM. In kind it is functional.
In test [14] the test system is MV4-11. Kind of test: Induction of oxidative stress in human MV4-11 cells assessed as increase in ROS production at 5 to 100 uM incubated for 6 hrs by DCF-DA and propidium iodide dye based flow cytometry. In kind it is functional, cell-based.
Another test deals with A549. In words: Antiproliferative activity against human A549 cells incubated for 72 hrs by SRB assay. It is filed as functional, cell-based. The following applies: A549, 72 h.
The test system of test [15] is UMUC3. Kind of test: Induction of apoptosis in human UM-UC-3 cells at 5 to 100 uM incubated for 24 hrs by FITC-Annexin V staining based flow cytometry. It is filed as functional, cell-based.
Test [16] deals with MV4-11. Kind of test: Induction of apoptosis in human MV4-11 cells at 5 to 100 uM incubated for 24 hrs by FITC-Annexin V staining based flow cytometry. In kind it is functional, cell-based.
Test [17] relates to UMUC3. Kind of test: Induction of apoptosis in human UM-UC-3 cells assessed as increase in caspase-3/7 activity at 5 to 100 uM using Ac-DEVD-ACC substrate incubated for 24 hrs by fluorescence based assay. In kind it is functional, cell-based.
Another test relates to P388. In words: Cytotoxicity against mouse P388 cells. It is filed as functional.
The test system of a further test is Calf thymus DNA. Kind of test: Binding affinity to calf thymus DNA assessed as increase in melting temperature incubated for 18 hrs by thermal denaturation study. In kind it is nucleic-acid assay. The following applies: Bos taurus.

The source made the active and inactive calls. The calls are words filed in the database; no cut-off is given here.

With `O=C1Nc2ccccc2C(=O)N2CCN(C(=O)c3ccccc3)C[C@@H]12`, the results for the concentration for half-maximal inhibition (IC50) with UMUC3 [1] and in the test on MV4-11 [2] were 10.5 µM and 27.1 µM, respectively.

For `O=C1Nc2ccccc2C(=O)N2CCN(C(=O)c3ccccc3)C[C@H]12`, the IC50 came out at 24.6 µM in the test on UMUC3 [1] and 28.8 µM in the test on MV4-11 [2].

For `O=C1Nc2ccccc2C(=O)N2CCN(C(=O)c3ccc(Cl)cc3)C[C@H]12`, the values for the IC50 in the test on UMUC3 [1] and in the test on MV4-11 [2] were 22.3 µM and 36.7 µM, respectively.

For `O=C1Nc2ccccc2C(=O)N2CCN(C(=O)c3ccc(-c4ccccc4)cc3)C[C@@H]12`, the outcome in the test on UMUC3 [3], in the test with UMUC3 [4], in the test on MV4-11 [5], in the test on MV4-11 [6], in the test with MV4-11 [11] and with MV4-11 [12] was Active. In the test on MV4-11 [14], the result was Active. Further, the IC50 came to 47.3 µM with MCF7; 35.8 µM with A2780; 61.5 µM in the test with UMUC3 [1]; 17.5 µM in the test with MV4-11 [2]; 141 µM in the test with MDA-MB-231; 154 µM in the test on HT-29. The values for the half-inhibitory concentration (IC50) with BALB/3T3, in the test with LoVo and with A549 were 79.6 µM, 55 µM and 96.1 µM, respectively. Also, the outcome in the test with UMUC3 [7], with UMUC3 [8] and in the test with UMUC3 [9] was inactive. Also, in the test with MV4-11 [10], the Activity result is “Dose-dependent effect”. Besides, the Ratio in [13] is recorded as more than 2.

As for `O=C1Nc2ccccc2C(=O)N2CCN(C(=O)c3ccc(Cl)cc3)C[C@@H]12`, the values for the half-maximal inhibitory concentration (IC50) with UMUC3 [1] and with MV4-11 [2] were 18.2 µM and 32.3 µM, respectively.

As to `O=C(O)CN1C(=O)[C@@H]2CN(C(=O)c3ccc(-c4ccccc4)cc3)CCN2C(=O)c2ccccc21`, the IC50 was 7.6 µM in the test on MCF7; 19.6 µM in the test on A2780; 3 µM in the test with UMUC3 [1]; 7.6 µM in the test with MV4-11 [2]; 7.8 µM with MDA-MB-231; 17.8 µM in the test with HT-29. Further, the 50% inhibitory concentration (IC50) in the test with BALB/3T3 amounted to 15 µM; with LoVo it was 27.6 µM; with A549, 3.2 µM.

Consider `O=C1Nc2ccccc2C(=O)N2CCN(C(=O)c3ccc(-c4ccccc4)cc3)C[C@H]12`, for which the IC50 with UMUC3 [1] was determined as 19.6 µM; with MV4-11 [2], 39.6 µM.

As for `O=C(c1ccc(-c2ccccc2)cc1)N1CCN2C(=O)c3ccccc3N(Cc3ccccc3)C(=O)[C@@H]2C1`, the IC50 in the test on MCF7 was found to be 35.8 µM; in the test with A2780 it was 62.8 µM; in the test with UMUC3 [1] it was 136 µM; in the test with MV4-11 [2] it was 10.8 µM; in the test on MDA-MB-231 it was 41 µM; in the test with HT-29, 144 µM. The values for the 50% inhibitory concentration (IC50) with BALB/3T3, in the test with LoVo and in the test with A549 were 136 µM, 11 µM and 106 µM, respectively. For the same compound, the outcome with UMUC3 [15], in the test on UMUC3 [7], in the test with UMUC3 [8], with UMUC3 [9] and with UMUC3 [17] was inactive. The Activity entry in the test with UMUC3 [4], in the test with MV4-11 [10] and with MV4-11 [14] was “Dose-dependent effect” in each case. The result with MV4-11 [16], in the test with MV4-11 [5], in the test with MV4-11 [6], in the test on MV4-11 [11] and in the test with MV4-11 [12] was Active.

Turning to `O=C1Nc2ccc(Cl)cc2C(=O)N2CCN(C(=O)c3ccc(-c4ccccc4)cc3)C[C@@H]12`, the half-maximal inhibitory concentration (IC50) in the test on MCF7 was determined as 50.9 µM; in the test with A2780, 29.7 µM; in the test with UMUC3 [1], 94.4 µM; with MV4-11 [2], 40.7 µM; in the test on MDA-MB-231 it was 85.8 µM; in the test on HT-29, 46.4 µM. Besides, the values for the IC50 with BALB/3T3, in the test on LoVo and with A549 were 105 µM, 28.9 µM and 51 µM, respectively.

Regarding `CN1C(=O)[C@@H]2CN(C(=O)c3ccc(-c4ccccc4)cc3)CCN2C(=O)c2ccccc21`, the IC50 in the test with MCF7 is 77.5 µM; in the test on A2780, 64.5 µM; in the test on UMUC3 [1], 103 µM; in the test on MV4-11 [2], 63.1 µM; with MDA-MB-231, 134 µM; with HT-29, 94.2 µM. Besides, the IC50 in the test with BALB/3T3 is 37 µM; with LoVo it was 58.3 µM; in the test on A549, 92 µM.

The compound `O=C1Nc2ccccc2C(=O)N2C=C(c3ccc(Br)cc3)C[C@@H]12` displayed a 50% growth inhibitory concentration (GI50) in the test on P388 of 510 nM.

For `COc1cc2c(cc1O)NC(=O)[C@@H]1C[C@@H](O)CN1C2=O`, in the test with Calf thymus DNA, the deltaTm was found to be 3.3 K.

With `O=C1Nc2ccccc2C(=O)N2CCN(C(=O)c3ccccc3I)C[C@@H]12`, the half-inhibitory concentration (IC50) in the test with UMUC3 [1] came to 31.1 µM; in the test on MV4-11 [2] it was 44 µM.

As for `O=C1Nc2ccc(Br)cc2C(=O)N2CCN(C(=O)c3ccc(-c4ccccc4)cc3)C[C@@H]12`, the IC50 was found to be 57 µM in the test with MCF7; 28.2 µM with A2780; 119 µM in the test with UMUC3 [1]; 8.7 µM in the test on MV4-11 [2]; 113 µM in the test with MDA-MB-231; 17.9 µM with HT-29. The concentration for half-maximal inhibition (IC50) in the test on BALB/3T3 came out at 121 µM; with LoVo it was 22.1 µM; with A549, 48.1 µM.

As for `O=C1Nc2ccccc2C(=O)N2CCN(C(=O)c3ccccc3I)C[C@H]12`, the IC50 turned out to be 13.3 µM in the test on UMUC3 [1] and 39.8 µM with MV4-11 [2].

In the case of `O=C(CN1C(=O)[C@@H]2CN(C(=O)c3ccc(-c4ccccc4)cc3)CCN2C(=O)c2ccccc21)OCc1ccccc1`, the IC50 in the test on MCF7 was 147 µM; in the test with A2780, 28 µM; with UMUC3 [1], 96.8 µM; in the test on MV4-11 [2], 44.2 µM; with MDA-MB-231, 30.3 µM; in the test with HT-29, 40.1 µM. Moreover, the figures for the IC50 in the test with BALB/3T3, with LoVo and in the test on A549 were 31 µM, 23.1 µM and 34.1 µM, respectively.

One may read the IC50 as the concentration that inhibits the measured activity by half. Read a high IC50 as lower potency. As a reminder, the GI50 is the concentration giving 50% growth inhibition. A low value points to greater sensitivity of the cells.

The values above are taken from ChEMBL document CHEMBL4184232, “Novel (S)-1,3,4,12a-tetrahydropyrazino[2,1-c][1,4]benzodiazepine-6,12(2H,11H)-dione derivatives: Selective inhibition of MV-4-11 biphenotypic B myelomonocytic leukemia cells' growth is accompanied by reactive oxygen species overproduction and apoptosis” (Bioorg Med Chem Lett, 2018).
